In patent publication US8586505B2 (SDS Biotech K. K., priority 2009, dated 2013):
Like-named read-outs stand apart in the source and are kept apart here.

Legend:
[1] = system: Phytophthora infestans; experiment: whole plant or invertebrate; assay type: in vivo; conditions: in Solanum lycopersicum, 96 h, read-out: Determination of control effect (preventive value)
[2] = system: Pseudoperonospora cubensis; experiment: Test of examining control effect on Pseudoperonospora cubensis (potted cucumber plants); assay type: in vivo; conditions: 96 h, 10% wettable powder adjusted to 125 ppm, 15 ml/pot sprayed on potted cucumber plants one day before spray inoculation, assessed after 1 day wet chamber and 3 days greenhouse, read-out: Determination of control effect (preventive value) on Pseudoperonospora cubensis
Summary of the method: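 Preventive treatment: 125 ppm sample agent solution (from 10% wettable powder) sprayed at 15 ml/pot on 2.5-leaf Sagamihanjiro cucumbers, then P. cubensis inoculated next day at 1.0×10^4 cells/ml. Incubation was 1 day wet at 21° C plus 3 days greenhouse. Lesion area rate compared with untreated gives preventive value (≥60% high).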

[3] = system: Sphaerotheca fuliginea; experiment: Test of examining control effect on Sphaerotheca fuliginea (potted cucumber plants); assay type: in vivo; conditions: Podosphaera fuliginea, 336 h, 10% wettable powder adjusted to 125 ppm, 15 ml/pot sprayed on potted cucumber plants one day before spray inoculation, assessed after 14 days in greenhouse, read-out: Determination of control effect (preventive value) on Sphaerotheca fuliginea
Summary of the method: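 Control effect rated high at preventive value 60–100% and low below 60%, from lesion area relative to untreated plants 14 days after spray inoculation with S. fuliginea (1.0×10^5 cells/ml). Compound applied at 125 ppm as wettable-powder spray one day before inoculation, on 2nd-leaf-stage Sagamihanjiro cucumber.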

With `Fc1ccc(C#CCCNc2ncnc3sccc23)c(F)c1` [compound 41] the pest or weed control at 125 ppm [1] was 60 to 100%, the melting point was 177 to 178 °C and the pest or weed control at 125 µg/mL [2] was 60 to 100%.
In the case of `Fc1cc(C#CCCNc2ncnc3sccc23)cc(F)c1F` [compound 43], the pest or weed control at 125 ppm [1] is reported as 60 to 100%, the melting point is reported as 158 to 159 °C and the pest or weed control at 125 µg/mL [2] is reported as 60 to 100%.
`C(#Cc1cccnc1)CCNc1ncnc2sccc12` [compound 56] gave a pest or weed control at 125 ppm [1] of 0 to 60%, a melting point of 138 to 140 °C and a pest or weed control at 125 µg/mL [2] of 60 to 100%.
In the case of `O=[N+]([O-])c1cccc(C#CCCNc2ncnc3sccc23)c1` [compound 39], the pest or weed control at 125 ppm [1] is reported as 60 to 100%, the melting point is reported as 171 to 172 °C and the pest or weed control at 125 µg/mL [2] is reported as 60 to 100%.
Molecule `O=[N+]([O-])c1ccc(C#CCCNc2ncnc3sccc23)cc1` [compound 40] has a pest or weed control at 125 ppm [1] of 60 to 100%, a melting point of 184 to 185 °C and a pest or weed control at 125 µg/mL [2] of 60 to 100%.
`CNC(=O)C(CC#Cc1ccccc1)Nc1ncnc2ccccc12` (stereo not drawn) [compound 305] showed a pest or weed control at 125 ppm [1] of 0 to 60%, a pest or weed control at 125 µg/mL ([2]; in Cucumis sativus) of 60 to 100% and a pest or weed control at 125 µg/mL ([3]; in Cucumis sativus) of 0 to 60%.
For `Cc1ccc(C#CCCNc2ncnc3ccccc23)s1` [compound 206], the pest or weed control at 125 ppm [1] was 60 to 100%, the pest or weed control at 125 µg/mL [2] was 60 to 100% and the pest or weed control at 125 µg/mL [3] was 0 to 60%.
`COCc1ccccc1C#CCCNc1ncnc2c(C)cc(C)cc12` [compound 341] gave a pest or weed control at 125 ppm [1] of 0 to 60%, a pest or weed control at 125 µg/mL [2] of 60 to 100% and a pest or weed control at 125 µg/mL [3] of 0 to 60%.
In the case of `FC(F)(F)c1ccccc1C#CCCNc1ncnc2cccc(Cl)c12` [compound 310], the pest or weed control at 125 ppm [1] is reported as 0 to 60%, the pest or weed control at 125 µg/mL [2] is reported as 60 to 100% and the pest or weed control at 125 µg/mL [3] is reported as 60 to 100%.
Molecule `COCc1ccccc1C#CCCNc1ncnc2c(C)cc(Cl)cc12` [compound 327] has a pest or weed control at 125 ppm [1] of 0 to 60%, a pest or weed control at 125 µg/mL [2] of 60 to 100% and a pest or weed control at 125 µg/mL [3] of 0 to 60%.
With `CC(CC#Cc1ncccc1C(F)(F)F)Nc1ncnc2sccc12` (stereo not drawn) [compound 264] the pest or weed control at 125 ppm [1] was 60 to 100%, the pest or weed control at 125 µg/mL [2] was 60 to 100% and the pest or weed control at 125 µg/mL [3] was 60 to 100%.
In the case of `FC(F)(F)c1cc(Cl)ccc1C#CCCNc1ncnc2ccccc12` [compound 178], the pest or weed control at 125 ppm [1] is reported as 60 to 100%, the pest or weed control at 125 µg/mL [2] is reported as 60 to 100% and the pest or weed control at 125 µg/mL [3] is reported as 60 to 100%.
For `COc1ccc(C#CCC(C)Nc2ncnc3ccccc23)c(C(F)(F)F)c1` (stereo not drawn) [compound 287], the pest or weed control at 125 ppm [1] was 0 to 60%, the pest or weed control at 125 µg/mL [2] was 60 to 100% and the pest or weed control at 125 µg/mL [3] was 60 to 100%.
`CSc1ncnc(NCCC#Cc2ccccc2C(F)(F)F)c1[N+](=O)[O-]` [compound 371] gave a pest or weed control at 125 ppm [1] of 0 to 60%, a pest or weed control at 125 µg/mL [2] of 0 to 60% and a pest or weed control at 125 µg/mL [3] of 0 to 60%.
`Cc1cc(Cl)ccc1C#CCC(C)Nc1ncnc2sccc12` (stereo not drawn) [compound 250] showed a pest or weed control at 125 ppm [1] of 60 to 100%, a pest or weed control at 125 µg/mL [2] of 60 to 100% and a pest or weed control at 125 µg/mL [3] of 60 to 100%.
In the case of `CCOC(=O)C(CC#Cc1ccccc1)Nc1ncnc2ccccc12` (stereo not drawn) [compound 303], the pest or weed control at 125 ppm [1] is reported as 0 to 60%, the pest or weed control at 125 µg/mL ([2]; in Cucumis sativus) is reported as 60 to 100% and the pest or weed control at 125 µg/mL ([3]; in Cucumis sativus) is reported as 0 to 60%.
`COCc1ccc(Cl)cc1C#CCCNc1ncnc2ccccc12` [compound 143] gave a pest or weed control at 125 ppm [1] of 60 to 100%, a pest or weed control at 125 µg/mL [2] of 60 to 100% and a pest or weed control at 125 µg/mL [3] of 60 to 100%.
For `Cc1ncnc(NCCC#Cc2ccc(Cl)cc2C(F)(F)F)c1Cl` [compound 360], the pest or weed control at 125 ppm [1] was 0 to 60%, the pest or weed control at 125 µg/mL [2] was 60 to 100% and the pest or weed control at 125 µg/mL [3] was 60 to 100%.
Work on `COCc1ccccc1C#CCCNc1ncnc(Cl)c1Cl` [compound 365] yielded a pest or weed control at 125 ppm [1] of 60 to 100%, a pest or weed control at 125 µg/mL [2] of 60 to 100% and a pest or weed control at 125 µg/mL [3] of 60 to 100%.
In the case of `Cc1cccc(C#CCCNc2ncnc3ccccc23)n1` [compound 200], the pest or weed control at 125 ppm [1] is reported as 60 to 100%, the pest or weed control at 125 µg/mL [2] is reported as 60 to 100% and the pest or weed control at 125 µg/mL [3] is reported as 60 to 100%.
`Cc1nc(C#CCC(C)Nc2ncnc3sccc23)cs1` (stereo not drawn) [compound 266] gave a pest or weed control at 125 ppm [1] of 60 to 100%, a pest or weed control at 125 µg/mL [2] of 60 to 100% and a pest or weed control at 125 µg/mL [3] of 60 to 100%.
`CCOC(=O)C(CC#Cc1ccccc1C(F)(F)F)Nc1ncnc2ccccc12` (stereo not drawn) [compound 304] gave a pest or weed control at 125 ppm [1] of 0 to 60%, a pest or weed control at 125 µg/mL [2] of 60 to 100% and a pest or weed control at 125 µg/mL [3] of 60 to 100%.
With `COCc1ccccc1C#CCCNc1ncnc2ccc(C#N)cc12` [compound 330] the pest or weed control at 125 ppm [1] was 60 to 100%, the pest or weed control at 125 µg/mL [2] was 60 to 100% and the pest or weed control at 125 µg/mL [3] was 0 to 60%.
In the case of `N#Cc1ccccc1Oc1nc(C#CCCNc2ncnc3ccccc23)cs1` [compound 221], the pest or weed control at 125 ppm [1] is reported as 0 to 60%, the pest or weed control at 125 µg/mL [2] is reported as 60 to 100% and the pest or weed control at 125 µg/mL [3] is reported as 60 to 100%.
Work on `Fc1ccc(C#CCCNc2ncnc3sccc23)cc1` [compound 13] yielded a pest or weed control at 125 ppm [1] of 0 to 60%, a pest or weed control at 125 µg/mL [2] of 60 to 100% and a pest or weed control at 125 µg/mL [3] of 60 to 100%.
`COCOCc1ccccc1C#CCCNc1ncnc2ccccc12` [compound 148] gave a pest or weed control at 125 ppm [1] of 60 to 100%, a pest or weed control at 125 µg/mL [2] of 60 to 100% and a pest or weed control at 125 µg/mL [3] of 60 to 100%.
Work on `COCc1ccccc1C#CCCNc1ncnc2c(F)cccc12` [compound 315] yielded a pest or weed control at 125 ppm [1] of 60 to 100%, a pest or weed control at 125 µg/mL [2] of 60 to 100% and a pest or weed control at 125 µg/mL [3] of 60 to 100%.
For `COCc1ccccc1C#CCCNc1ncnc2ccccc12` [compound 133], the pest or weed control at 125 ppm [1] was 60 to 100%, the pest or weed control at 125 µg/mL [2] was 60 to 100% and the pest or weed control at 125 µg/mL [3] was 60 to 100%.
For `CC(CC#Cc1csc(Oc2ccccc2)n1)Nc1ncnc2ccccc12` (stereo not drawn) [compound 293], the pest or weed control at 125 ppm [1] was 60 to 100%, the pest or weed control at 125 µg/mL [2] was 60 to 100% and the pest or weed control at 125 µg/mL [3] was 60 to 100%.
With `CC(CC#Cc1ccc(C(F)(F)F)cc1C(F)(F)F)Nc1ncnc2ccccc12` (stereo not drawn) [compound 280] the pest or weed control at 125 ppm [1] was 0 to 60%, the pest or weed control at 125 µg/mL [2] was 60 to 100% and the pest or weed control at 125 µg/mL [3] was 0 to 60%.
With `C(#CC1CCCCC1)CCNc1ncnc2ccccc12` [compound 91] the pest or weed control at 125 ppm [1] was 60 to 100%, the pest or weed control at 125 µg/mL [2] was 60 to 100% and the pest or weed control at 125 µg/mL [3] was 60 to 100%.
`CC(CC#Cc1ccccc1OC(C)C)Nc1ncnc2sccc12` (stereo not drawn) [compound 242] gave a pest or weed control at 125 ppm [1] of 0 to 60%, a pest or weed control at 125 µg/mL [2] of 60 to 100% and a pest or weed control at 125 µg/mL [3] of 60 to 100%.
For `COCc1ccc2ccccc2c1C#CCCNc1ncnc2ccccc12` [compound 185], the pest or weed control at 125 ppm [1] was 0 to 60%, the pest or weed control at 125 µg/mL [2] was 60 to 100% and the pest or weed control at 125 µg/mL [3] was 0 to 60%.
Molecule `C[Si](C)(C)c1ccc(C#CCCNc2ncnc3ccccc23)cc1` [compound 111] has a pest or weed control at 125 ppm [1] of 0 to 60%, a pest or weed control at 125 µg/mL [2] of 60 to 100% and a pest or weed control at 125 µg/mL [3] of 60 to 100%.
Molecule `FC(F)(F)c1ccccc1C#CCCNc1ncnc2sccc12` [compound 25] has a pest or weed control at 125 ppm [1] of 60 to 100%, a pest or weed control at 125 µg/mL [2] of 60 to 100% and a pest or weed control at 125 µg/mL [3] of 60 to 100%.
For `COCc1ccccc1C#CCCNc1ncnc2c(C(F)(F)F)cccc12` [compound 323], the pest or weed control at 125 ppm [1] was 60 to 100%, the pest or weed control at 125 µg/mL [2] was 60 to 100% and the pest or weed control at 125 µg/mL [3] was 60 to 100%.
In the case of `CC(CC#Cc1ccc(Cl)cc1C(F)(F)F)Nc1ncnc2c(C(F)(F)F)cccc12` (stereo not drawn) [compound 351], the pest or weed control at 125 ppm [1] is reported as 0 to 60%, the pest or weed control at 125 µg/mL [2] is reported as 60 to 100% and the pest or weed control at 125 µg/mL [3] is reported as 60 to 100%.
With `C(#CC1=CCCCC1)CCNc1ncnc2ccccc12` [compound 94] the pest or weed control at 125 ppm [1] was 0 to 60%, the pest or weed control at 125 µg/mL [2] was 60 to 100% and the pest or weed control at 125 µg/mL [3] was 60 to 100%.
Work on `FC(F)(F)c1ccc(C#CCCNc2ncnc3ccccc23)nc1` [compound 197] yielded a pest or weed control at 125 ppm [1] of 0 to 60%, a pest or weed control at 125 µg/mL [2] of 60 to 100% and a pest or weed control at 125 µg/mL [3] of 60 to 100%.
